Experimental data as given in patent publication US20040162274A1, “Inhibition of steroid synthesis by use of progesterone or a progesterone receptor agonist” (priority 2002, published 2004).

Assays:
Format in all cases: cell-based, rat
StAR protein = test: StAR expression in Leydig cells in vitro (northern blot)
Excerpt: RNA was isolated from 1.5×10^6 high-quality cleaned Leydig cells, which were cultivated in 12-well plates (750,000 cells/well). The RNA was extracted in accordance with a modified single-step method of Chomczynski and Sacchi, Anal. Biochem., 162:156-159 (1987), using the small-scale phenol-free RNA isolation kit (Ambion Inc., Austin, Tex.). According to the size, the isolated RNA was separated by gel electrophoresis in a 1.2% agarose gel using the formaldhyde/morpholino-propane sulphonic acid method (Sambrook et al., Vol.1, 7.37, 7.39-7.52, Nolan, C. (Ed), Cold Spring Harbor Laboratory Press, Cold Spring Harbor, N.Y.). The transfer (blotting) of the RNA from the gel onto a nylon membrane (nytran, Schleicher and Schüll, Dassel, Germany) was carried out by capillary transfer using a downwards-directed transfer for 4 hours in accordance with the manufacturer's instructions (Ambion Inc., Austin, Tex.; AMS Biotechnology, Wiesbaden, Germany) with modifications by Chomczynski, P., Anal. Biochem., 201:134-139 (1992). […]
As the gestagens mentioned above apparently both have inhibitory effects on cAMP and on the production of steroids in gonadotropin-stimulated Leydig cells, the inhibitory effects of progesterone on the quantity of StAR protein expressed were analysed. […] At the end of the incubation, total RNA was extracted and StAR protein expression was analysed using northern blots. […]

[1] = system: isolated Leydig cells of rats; test: hCG-induced cAMP production in isolated Leydig cells of rats (ELISA); conditions: for amount of cAMP formed in the cells in response to gonadotropic stimulation: FIGS. 2 and 3
Description: (§1) The testicles of young (three months old) and old (23-24 months old) Wistar rats (Charles River, Sulzfeld, Germany) were removed immediately after killing the rats by means of carbon dioxide anaesthesia and cervical dislocation.
(§2) In order to isolate and to purify the Leydig cells from the testicles of young and old rats, the decapsulated testicular mass of healthy Wistar rats was treated with collagenase (0.25 mg/ml) for 30 minutes at room temperature as described by Mukhopadhyay et al., Biochem. J., 239:463-467 (1986a), Mukhopadhyay et al., FEBS Lett., 202:111-116 (1986b)). The homogenous cell suspension so obtained was filtered through a nylon filter to obtain an impure Leydig cell preparation. After further purification by means of a Percoll gradient, the final number of high-grade purified Leydig cells was determined using a Neubauer chamber.
Aliquots of 100,000 cells per incubation tube were used for the experiments in which cAMP was measured. The cells were pre-incubated for 3 hours and subsequently incubated for 30 minutes with or without the addition of different concentrations of hCG as a surrogate for LH. In order to investigate the effect of the different steroids, Leydig cells were subjected to steroids for 3 hours as described. The cells were then stimulated with hCG (3 ng/ml) for 30 minutes. Incubation was stopped by the addition of absolute ethanol (final alcohol concentration ca. 80%) and subsequent mixing by means of vortices. The ethanol extract was evaporated until dry, and the residue dissolved in 1 ml of MEM, which contained 0.1% sodium azide. The amount of cAMP formed was determined by means of a specific ELISA, which was carried out as described in Budnik and Mukhopadhyay, FEBS Letters, 419:4-8 (1997). However, commercially available ELISAs, such as, for example, CM 59221 (IBL, Hamburg, Germany) or DE 0355 or DE 0450 (R&D Systems GmbH, Wiesbaden, Germany) can also be used.
Leydig cells were subjected to 3 different steroids for 3 hours (see FIG. 1). Subsequently, the cells were stimulated over 30 minutes with hCG (human chorion gonadotropin; 3 ng/ml) as a surrogate for LH.
The amount of cAMP formed was determined using a specific ELISA.

[2] = system: isolated Leydig cells of rats; test: hCG-induced testosterone production in isolated Leydig cells of rats; conditions: different concentrations for 3 hours, then hCG 5 ng/ml for 3 hours; testosterone in medium; FIG. 3
Description: as §1, §2
Similar culture conditions as described above were used for experiments, in which testosterone was measured. However, aliquots of 50,000 cells per incubation tube were used. […] The content of testosterone was determined by means of specific, commercially available kits (IBL, Hamburg). The amount of testosterone for 100,000 cells was calculated on the basis of the measured values.
Both R5020 and drospirenone are clearly, structurally different from testosterone. […] Then, the quantity of testosterone that accumulated in the medium was measured.

Compound | hCG-stimulated amounts of StAR protein (StAR protein; pre-incubation 3 hours, then hCG 5 ng/ml 3 hours, Lane 4 vs Lane 2, FIG. 4) | expression of StAR protein in cells not treated with a gonadotropin (StAR protein; pre-treatment 3 hours, no hCG, Lane 3, FIG. 4) | effect on cAMP reaction to gonadotropin stimulation ([1]; Leydig cells subjected to steroid 3 hours, then hCG 3 ng/ml 30 minutes, FIG. 1) | effect on hCG-induced cAMP formation at 0.1 μmol/l ([1]; concentration 0.1 μmol/l (10^−7 mol/l)) | effect on hCG-induced cAMP formation, dose-response curve ([1]; dose-response curve, FIG. 2) | effect on hCG-induced cAMP formation at higher concentrations ([1]; higher concentrations, up to 2.5 μmol/l) | effect on hCG-induced production of testosterone [2] | amount of cAMP formed in the cells in response to gonadotropic stimulation [1]
CC(=O)[C@H]1CC[C@H]2[C@@H]3CCC4=CC(=O)CC[C@]4(C)[C@H]3CC[C@]12C [progesterone, 4-pregnene-3,20-dione] | significant reduction | did not significantly affect | significantly inhibit | almost no effects | dose-dependent inhibitory effect | clearly inhibitory effects |  | 
CCC(=O)[C@@]1(C)CC[C@H]2[C@@H]3CCC4=CC(=O)CCC4=C3CC[C@@]21C [R5020] |  |  |  |  |  |  | able to inhibit the production of testosterone | drastically reduced
C[C@]12CCC(=O)C=C1[C@@H]1C[C@@H]1[C@H]1[C@@H]3[C@@H]4C[C@@H]4[C@@]4(CCC(=O)O4)[C@@]3(C)CC[C@@H]12 [drospirenone] |  |  |  |  |  |  | able to inhibit the production of testosterone | drastically reduced
